Measured values as given in US5952307A, “Basic α-aminoalkylphosphonate derivatives” (priority 1997, dated 1999).

Key:
Format in all cases: biochemical
bovine trypsin = molecular target: T1, bovine trypsin (Bos taurus, UniProt P00760); experiment: Inactivation rate of bovine trypsin, incubation method; conditions: for kobs /[I] bovine trypsin: 0.13 μM trypsin, 0.25-42 μM inhibitor, 80 mM Hepes pH 7.5, 1 mM CaCl2, 8% DMSO, 25° C., NI = no inhibition; for kobsd /[I] bovine trypsin: Table I, 0.1M Hepes, 0.01M CaCl2 pH 7.5, 25° C., 2% DMSO, substrate Z--Arg--SBzl, NI = no inhibition after 25 min
T1 sequence (P00760 24-246): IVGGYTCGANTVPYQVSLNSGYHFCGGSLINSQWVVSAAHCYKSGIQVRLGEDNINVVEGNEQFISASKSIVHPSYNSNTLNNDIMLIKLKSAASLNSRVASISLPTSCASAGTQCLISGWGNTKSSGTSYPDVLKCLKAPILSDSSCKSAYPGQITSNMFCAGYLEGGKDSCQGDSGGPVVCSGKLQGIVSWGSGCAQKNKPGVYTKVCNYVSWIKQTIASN
Description: (§1) Inactivation rates of serine proteases by aryl diesters of peptidyl derivatives of α-aminoalkylphosphonates were measured by the incubation method. An aliquot of inhibitor (25 or 50 μl) in Me2 SO was added to a buffered enzyme solution (0.01-2.3 μM) to initiate the inactivation. Aliquots (50 μl) were withdrawn at various intervals and the residual enzymatic activity was measured. Me2 SO concentration in the reaction mixture was 8-12% (v/v). A 0.1 M HEPES, 0.01 M CaCl2, pH 7.5 buffer was utilized for trypsin and trypsin-like enzymes. A 0.1 M HEPES, 0.5 M NaCl, pH 7.5, was utilized for the other serine proteases. Peptide thioesters or peptide nitroanilides with the appropriate sequences were used as substrates for various serine proteases. All peptide thioesters hydrolysis rates were measured with the assay mixture containing 4,4'-dithiodipyridine {ε324 =19800 M^-1 cm^-1; Grasetti & Murray, Arch. Biochem. Biophys. 1967, 119, 41-48}. Peptide 4-nitroanilide hydrolysis was measured at 410 nm {ε410 =8800 M^-1 cm^-1; Erlanger et al., Arch. Biochem. Biophys. 1961, 95, 271-278}. First order inactivation rate constants (Kobs) were obtained from plots of In vt /vo vs time, and the correlation coefficients were greater then 0.98.
(§2) ^a Inhibition constants were measured in 0.1M Hepes, 0.01M CaCl2
(§3) pH 7.5 for trypsin, granzymes A, and K, and in 0.1M Hepes, 10% glycerol,
(§4) 10 mM heparin, pH 7.5 for mast cell tryptase, and at 25° C. The
(§5) reaction mixtures contained 2% DMSO for trypsin, 7.6% for granzyme A, and
(§6) 7.1% for granzyme K and tryptase. The substrate was Z--Arg--SBzl for
(§7) granzymes and trypsin, and Z--Arg--SBzl or Z--Lys--SBzl for tryptase in
(§8) the presence of DTNB. The inhibitor # concentration ranged from 0.001 to
(§9) ^b NI, no inhibition after 25 min of incubation with enzyme.
(§10) ^a Enzyme was incubated with the inhibitor in 250 μL of the proper
(§11) buffer at 25° C. Specifically, the inhibition reation mixtures wer
composed of: 0.13 μM trypsin, 0.25-42 μM inhibitor in an 80 mM
(§12) Hepes, pH 7.5 buffer containing 1 mM CaCl2 and 8% DMSO; 0.07 μM
(§13) DMSO. Aliquots of 25 μL were withdrawn at various intervals and the
(§14) residual enzymatic activity was measured as described in experimental
(§15) section. The kobs values were calculated from pseudofirst-order
(§16) ^a Enzyme (0.06-0.5 μM) was incubated with the inhibitor (0.25-42
(§17) μM) in 250 μL of the proper buffer containing 9% DMSO at 25°
(§18) C. The final inhibition reaction mixtures are given in the footnote to
(§19) Table 1. Aliquots of 25 μL were withdrawn at various intervals and the […]

human thrombin = molecular target: T2, human thrombin (Homo sapiens, UniProt P00734); conditions: Table II; for kobs /[I] human thrombin: 0.07 μM thrombin, 0.25-42 μM inhibitor, 80 mM Hepes pH 7.5, 428 mM NaCl, 8% DMSO, 25° C., NI = no inhibition; for % Inh human thrombin: printed in the kobs/[I] column
T2 construct: bovine trypsin, human thrombin
Description: as §1, with “271-278}.” for “271-278}. First order inactivation rate constants (Kobs) were obtained from plots of In vt /vo vs time, and the correlation coefficients were greater then 0.98.”
as §10, §11, §12
thrombin, 0.25-42 μM inhibitor in an 80 mM Hepes, pH 7.5 buffer
(§20) containing 428 mM NaCl and 8% DMSO; 0.07 μM tryptase, 20-66 μM
as §13, §14, §15, §16, §17, §18, §19

human granzyme A = molecular target: T3, human granzyme A (Homo sapiens, UniProt P12544); experiment: Inactivation rate of human granzyme A, incubation method; conditions: Table I; 0.1M Hepes, 0.01M CaCl2 pH 7.5, 25° C., 7.6% DMSO, substrate Z--Arg--SBzl
T3 sequence (P12544 29-262): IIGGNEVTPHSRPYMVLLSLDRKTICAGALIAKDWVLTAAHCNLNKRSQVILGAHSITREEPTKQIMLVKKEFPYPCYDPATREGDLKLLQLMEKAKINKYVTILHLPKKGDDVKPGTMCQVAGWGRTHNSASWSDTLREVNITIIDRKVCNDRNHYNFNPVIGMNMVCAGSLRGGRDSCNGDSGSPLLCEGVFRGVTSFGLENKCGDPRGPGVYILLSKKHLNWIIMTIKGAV
Description: as §1, §2, §3, §4, §5, §6, §7, §8, §9

mast cell tryptase = mast cell tryptase (Homo sapiens, UniProt Q15661); experiment: Inactivation rate of mast cell tryptase, incubation method; conditions: for kobsd /[I] mast cell tryptase: Table I, 0.1M Hepes, 10% glycerol, 10 mM heparin, pH 7.5, 25° C., 7.1% DMSO, NI = no inhibition after 25 min of incubation; for kobs /[I] mast cell tryptase: Table II, 0.07 μM tryptase, 20-66 μM inhibitor, Hepes pH 7.5, heparin, 9% glycerol, 8% DMSO, 25° C., NI = no inhibition
Description: as §1, §2, §3, §4, §5, §6, §7, §8, §9, §10, §20
inhibitor # in an mM Hepes, pH 7.5 buffer containing 8 mM heparin, 166 m
NaCl, 0.8 mM Mes, 9% glycerol and 8% DMSO; 0.42 μM factor Xa, 66 μM
as §13, §14, §15, §16, §17, §18, §19

Chain of mast cell tryptase (Q15661 31-275): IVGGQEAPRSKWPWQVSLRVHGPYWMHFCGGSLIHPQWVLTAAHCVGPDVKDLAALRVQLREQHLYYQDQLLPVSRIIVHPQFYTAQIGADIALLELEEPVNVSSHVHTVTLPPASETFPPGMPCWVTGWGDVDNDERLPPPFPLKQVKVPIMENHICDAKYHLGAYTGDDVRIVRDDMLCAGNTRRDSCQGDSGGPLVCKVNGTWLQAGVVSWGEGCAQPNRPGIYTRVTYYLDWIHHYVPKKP

| Structure (SMILES) | kobs /[I] bovine trypsin (bovine trypsin; Table II) | kobs /[I] human thrombin (human thrombin) | other results |
| --- | --- | --- | --- |
| CC(C)CC(NC(=O)C(CC(N)=O)NC(=O)OC(C)(C)C)C(=O)NC(C(=O)NC(c1ccc(C(=N)N)cc1)P(=O)(Oc1ccccc1)Oc1ccccc1)C(C)O (mixture of isomers) [Boc--Asn--Leu--Thr-(4-AmPhGly)^P (OPh)2] | 18 ± 2 M⁻¹ s⁻¹ | 46 ± 6 M⁻¹ s⁻¹ | – |
| CC(C)C(NC(=O)C(Cc1ccccc1)NC(=O)OC(C)(C)C)C(=O)NC(c1ccc(C(=N)N)cc1)P(=O)(Oc1ccccc1)Oc1ccccc1 (mixture of isomers) [Boc--D--Phe--Val-(4-AmPhGly)^P (OPh)2] | 30 ± 2 M⁻¹ s⁻¹ | 63 ± 4 M⁻¹ s⁻¹ | – |
| CC(C)CC(NC(=O)OC(C)(C)C)C(=O)NC(CO)C(=O)NC(c1ccc(C(=N)N)cc1)P(=O)(Oc1ccccc1)Oc1ccccc1 (mixture of isomers) [Boc--Leu--Ser-(4-AmPhGly)^P (OPh)2] | 177 ± 2 M⁻¹ s⁻¹ | 97 ± 2 M⁻¹ s⁻¹ | – |
| CC(C)CC(NC(=O)OC(C)(C)C)C(=O)NC(C(=O)NC(c1ccc(C(=N)N)cc1)P(=O)(Oc1ccccc1)Oc1ccccc1)C(C)O (mixture of isomers) [Boc--Leu--Thr-(4-AmPhGly)^P (OPh)2] | 35 ± 6 M⁻¹ s⁻¹ | 75 ± 1 M⁻¹ s⁻¹ | – |
| CC(C)C(NC(=O)OC(C)(C)C)C(=O)NC(C(=O)NC(c1ccc(C(=N)N)cc1)P(=O)(Oc1ccccc1)Oc1ccccc1)C(C)C (mixture of isomers) [Boc--Val--Val-(4-AmPhGly)^P (OPh)2] | 61 ± 5 M⁻¹ s⁻¹ | 85 ± 5 M⁻¹ s⁻¹ | – |
| CC(C)CC(NC(=O)OCc1ccccc1)C(=O)NC(c1ccc(C(=N)N)cc1)P(=O)(Oc1ccccc1)Oc1ccccc1 (mixture of isomers) [Cbz--Leu-(4-AmPhGly)^P (OPh)2] | 1.3 ± 0.1 M⁻¹ s⁻¹ | – | kobsd /[I] human granzyme A (human granzyme A): 6.3 ± 0.7 M⁻¹ s⁻¹; kobsd /[I] mast cell tryptase (mast cell tryptase): 0.3 M⁻¹ s⁻¹; kobs /[I] mast cell tryptase (mast cell tryptase): 0.3 M⁻¹ s⁻¹; kobsd /[I] bovine trypsin (bovine trypsin): 50 ± 1 M⁻¹ s⁻¹; % Inh human thrombin (human thrombin): 19% |
| CC(NC(=O)C(CCCCN)NC(=O)OCc1ccccc1)C(=O)NC(c1ccc(C(=N)N)cc1)P(=O)(Oc1ccccc1)Oc1ccccc1 (mixture of isomers) [Cbz--Lys--Ala-(4-AmPhGly)^P (OPh)2] | 3,140 ± 262 M^-1 s^-1 | 180 ± 7 M⁻¹ s⁻¹ | kobsd /[I] human granzyme A (human granzyme A): 90 ± 9 M⁻¹ s⁻¹; kobsd /[I] mast cell tryptase (mast cell tryptase): 2 M⁻¹ s⁻¹; kobs /[I] mast cell tryptase (mast cell tryptase): 2.0 ± 0.0 M⁻¹ s⁻¹; kobsd /[I] bovine trypsin (bovine trypsin): 3140 ± 262 M⁻¹ s⁻¹ |
| N=C(N)c1ccc(C(NC(=O)C(Cc2c[nH]c3ccccc23)NC(=O)OCc2ccccc2)P(=O)(Oc2ccccc2)Oc2ccccc2)cc1 (mixture of isomers) [Cbz--Trp-(4-AmPhGly)^P (OPh)2] | 0.6 M⁻¹ s⁻¹ | 1.2 ± 0.0 M⁻¹ s⁻¹ | – |
| CC(C)CC(N)C(=O)NC(C(=O)NC(c1ccc(C(=N)N)cc1)P(=O)(Oc1ccccc1)Oc1ccccc1)C(C)O (mixture of isomers) [Leu--Thr-(4-AmPhGly)^P (OPh)2] | 24.5 ± 0.0 M⁻¹ s⁻¹ | 58 ± 3 M⁻¹ s⁻¹ | – |
| Cc1ccc(S(=O)(=O)NC(c2ccc(C(=N)N)cc2)P(=O)(Oc2ccccc2)Oc2ccccc2)cc1 (racemic) [Tolyl-SO2-(4-AmPhGly)^P (OPh)2] | 35 ± 6 M⁻¹ s⁻¹ | 94 ± 26 M⁻¹ s⁻¹ | – |
| N=C(N)c1ccc(C(NC(=O)CCCc2ccccc2)P(=O)(Oc2ccccc2)Oc2ccccc2)cc1 (stereo not drawn) [4-Phenylbutanoyl-(4-AmPhGly)^P (OPh)2] | – | 17 ± 1 M⁻¹ s⁻¹ | % Inh bovine trypsin (bovine trypsin; Table II, printed in the kobs/[I] column): 15% |
| Cl.N=C(N)c1cccc(C(NC(=O)OCc2ccccc2)P(=O)(Oc2ccccc2)Oc2ccccc2)c1 (stereo not drawn) [Cbz-(3-AmPhGly)^P (OPh)2, Diphenyl N-Benzyloxycarbonylamino-(3-amidinophenyl)methanephosphonate Hydrochloride] | – | – | % Inh human thrombin (human thrombin): 50% |
| Cl.N=C(N)c1ccc(C(NC(=O)OCc2ccccc2)P(=O)(Oc2ccccc2)Oc2ccccc2)cc1 (stereo not drawn) [Cbz-(4-AmPhGly)^P (OPh)2, Diphenyl N-benzyloxycarbonylamino(4-amidinophenyl)methanephosphonate hydrochloride] | 170 M⁻¹ s⁻¹ | 80 M⁻¹ s⁻¹ | kobsd /[I] bovine trypsin (bovine trypsin): 2000 M⁻¹ s⁻¹ |
| Cl.N=C(N)c1ccc(C(NC(=O)OCc2ccccc2)P(=O)(O)Oc2ccccc2)cc1 (stereo not drawn) [Cbz-(4-AmPhGly)^P (OPh)(OH), Phenyl Hydrogen N-Benzyloxycarbonylamino-(4-amidinophenyl)methanephosphonate Hydrochloride] | 0.3 M⁻¹ s⁻¹ | – | – |
| COP(=O)(Oc1ccccc1)C(NC(=O)OCc1ccccc1)c1ccc(C(=N)N)cc1.Cl (stereo not drawn) [Cbz-(4-AmPhGly)^P (OPh)(OMe), Methyl Phenyl N-Benzyloxycarbonylamino-(4-amidinophenyl)methanephosphonate Hydrochloride] | 83 M⁻¹ s⁻¹ | 41 M⁻¹ s⁻¹ | – |
| Cl.N=C(N)c1ccc(C(NC(=O)OCc2ccccc2)P(=O)(Oc2ccc(Cl)cc2)Oc2ccc(Cl)cc2)cc1 (stereo not drawn) [Cbz-(4-AmPhGly)^P (OPh-p-Cl)2, Di-p-chlorophenyl N-Benzyloxycarbonylamino-(4-amidinophenyl)methanephosphonate Hydrochloride] | 41,100 ± 5400 M^-1 s^-1 | 9,300 ± 210 M^-1 s^-1 | kobs /[I] mast cell tryptase (mast cell tryptase): 3 ± 0 M⁻¹ s⁻¹ |
| N=C(N)c1ccc(C(NC(=O)CNC(=O)OCc2ccccc2)P(=O)(Oc2ccccc2)Oc2ccccc2)cc1 (stereo not drawn) [Cbz--Gly-(4-AmPhGly)^P (OPh)2] | 195 ± 9 M⁻¹ s⁻¹ | 24 ± 3 M⁻¹ s⁻¹ | – |
